test system: Kasumi-1 acute myeloid leukemia cells; test: Growth Inhibition Assay (Alamar blue), Kasumi-1; assay type: cell-based, human; conditions: Homo sapiens, Kasumi 1, 72 h, Kasumi-1 cells
Experimental: (§1) The IC50 values listed for some of these compounds illustrate the antiproliferative effects of the subject compounds and were obtained using the Growth Inhibition assays described herein.
(§2) Growth Inhibition Assay. Antiproliferative effects of inhibitors were evaluated using the dye Alamar blue. This reagent offers a rapid objective measure of cell viability in cell culture, and it uses the indicator dye resazurin to measure the metabolic capacity of cells, an indicator of cell viability. Briefly, cells were plated on Costar 96-well plates. For attached cells (such as SKBr3, MDA-MB-468, LNCaP, MRCS), 8,000 cells/well were used. For suspension cells (such as MOLM-13, Kasumi-1, OCI-Ly7, PBL), 20,000 cells/well were plated. Cells were allowed to incubate for 24 h at 37° C. before drug treatment. Drugs were added in triplicates at the indicated concentrations, and the plate was incubated for 72 h. Alamar Blue (440 μM) was added, and the plate read 6 h later using the Analyst GT (Fluorescence intensity mode, excitation 530 nm, emission 580 nm, with 560=dichroic mirror). Results were analyzed using the Softmax Pro software. The percentage cell growth inhibition was calculated by comparing fluorescence readings obtained from treated versus control cells, accounting for initial cell population (time zero).

Compound | IC50 [µM]
COCC(=O)Nc1ccnc(Sc2c(C)nc(N3CCOCC3)nc2C)n1 [YK123, N-(2-(4,6-dimethyl-2-morpholinopyrimidin-5-ylthio)pyrimidin-4-yl)-2-methoxyacetamide] | 58.1
COc1nc(N2CCN(C)CC2)nc(OC)c1Sc1cccc(NC(=O)C2CC2)c1 [YK139, N-(3-(4,6-dimethoxy-2-(4-methylpiperazin-1-yl)pyrimidin-5-ylthio)phenyl)cyclopropanecarboxamide] | 8.9
CCC(=O)Nc1cccc(Sc2c(C)nc(N3CCNCC3)nc2C)c1 [YK146, N-(3-(4,6-dimethyl-2-(piperazin-1-yl)pyrimidin-5-ylthio)phenyl)propionamide] | 8.8
CCCCN1CCN(c2nc(OC)c(Sc3nc(N)cc(N)n3)c(OC)n2)CC1 [YK25, 2-(2-(4-butylpiperazin-1-yl)-4,6-dimethoxypyrimidin-5-ylthio)pyrimidine-4,6-diamine] | > 100
C=CC(=O)Nc1cc(N)nc(Sc2c(OCC)nc(N3CCCCC3)nc2OCC)n1 [YK37, N-(6-amino-2-(4,6-diethoxy-2-(piperidin-1-yl)pyrimidin-5-ylthio)pyrimidin-4-yl)acrylamide] | 2.5
C/C=C/C(=O)Nc1cc(N)nc(Sc2c(OCC)nc(N3CCN(C)CC3)nc2OCC)n1 [YK34, (E)-N-(6-amino-2-(4,6-diethoxy-2-(4-methylpiperazin-1-yl)pyrimidin-5-ylthio)pyrimidin-4-yl)but-2-enamide] | 55
CCOc1nc(N2CCCCC2)nc(OCC)c1Sc1nc(NC(=O)C2CC2)cc(NC(=O)C2CC2)n1 [YK41, N,N′-(2-(4,6-diethoxy-2-(piperidin-1-yl)pyrimidin-5-ylthio)pyrimidine-4,6-diyl)dicyclopropanecarboxamide] | > 100
C=CC(=O)Nc1cc(N)nc(Sc2c(OCC)nc(N3CCOCC3)nc2OCC)n1 [YK44, N-(6-amino-2-(4,6-diethoxy-2-morpholinopyrimidin-5-ylthio)pyrimidin-4-yl)acrylamide] | 1.2
COc1nc(NCCCCCCO)nc(OC)c1Sc1nc(N)cc(N)n1 [YK52, 6-(5-(4,6-diaminopyrimidin-2-ylthio)-4,6-dimethoxypyrimidin-2-ylamino)hexan-1-ol] | 779
CCCCN1CCN(c2nc(OC)c(Sc3nc(NC(C)=O)cc(NC(C)=O)n3)c(OC)n2)CC1 [YK24, N,N′-(2-(2-(4-butylpiperazin-1-yl)-4,6-dimethoxypyrimidin-5-ylthio)pyrimidine-4,6-diyl)diacetamide] | 16.8

Results, then the compound that gave them:

IC50 [µM] | Compound
4.8 | C=CC(=O)Nc1ccnc(Sc2c(C)nc(N3CCN(C)CC3)nc2C)n1 [YK85, N-(2-(4,6-dimethyl-2-(4-methylpiperazin-1-yl)pyrimidin-5-ylthio)pyrimidin-4-yl)acrylamide]
38.3 | CCOc1nc(N2CCCCC2)nc(OCC)c1Sc1nc(N)cc(NC(=O)C2CC2)n1 [YK40, N-(6-amino-2-(4,6-diethoxy-2-(piperidin-1-yl)pyrimidin-5-ylthio)pyrimidin-4-yl)cyclopropanecarboxamide]
> 100 | COc1nc(N2CCOCC2)nc(OC)c1Sc1nc(NC(C)=O)cc(NC(C)=O)n1 [YK8, N,N′-(2-(4,6-dimethoxy-2-morpholinopyrimidin-5-ylthio)pyrimidine-4,6-diyl)diacetamide]
7.2 | CCCCCCCC(=O)Nc1cc(N)nc(Sc2c(OC)nc(N3CCN(CCO)CC3)nc2OC)n1 [YK21, N-(6-amino-2-(2-(4-(2-hydroxyethyl)piperazin-1-yl)-4,6-dimethoxypyrimidin-5-ylthio)pyrimidin-4-yl)octanamide]
16 | COc1nc(N2CCN(C)CC2)nc(OC)c1Sc1nc(N)cc(NC(C)=O)n1 [YK53, N-(6-amino-2-(4,6-dimethoxy-2-(4-methylpiperazin-1-yl)pyrimidin-5-ylthio)pyrimidin-4-yl)acetamide]
23 | COc1nc(N)nc(OC)c1Sc1nc(N)cc(NC(=O)CCN2CCN(C)CC2)n1 [YK6, N-(6-amino-2-(2-amino-4,6-dimethoxypyrimidin-5-ylthio)pyrimidin-4-yl)-3-(4-methylpiperazin-1-yl)propanamide]
6.3 | CCCCCCCC(=O)Nc1cc(N)nc(Sc2c(OC)nc(N3CCN(C)CC3)nc2OC)n1 [YK20, N-(6-amino-2-(4,6-dimethoxy-2-(4-methylpiperazin-1-yl)pyrimidin-5-ylthio)pyrimidin-4-yl)octanamide]
54.2 | COc1nc(N2CCOCC2)nc(OC)c1Sc1nccc(N)n1 [YK69, 2-(4,6-dimethoxy-2-morpholinopyrimidin-5-ylthio)pyrimidin-4-amine]
50 | CCOc1nc(N2CCCCC2)nc(OCC)c1Sc1nc(N)cc(NC(=O)CC)n1 [YK38, N-(6-amino-2-(4,6-diethoxy-2-(piperidin-1-yl)pyrimidin-5-ylthio)pyrimidin-4-yl)propionamide]
> 100 | COc1nc(N2CCCCC2)nc(OC)c1Sc1nc(NC(C)=O)cc(NC(C)=O)n1 [YK9, N,N′-(2-(4,6-dimethoxy-2-(piperidin-1-yl)pyrimidin-5-ylthio)pyrimidine-4,6-diyl)diacetamide]
2 | C=CC(=O)Nc1ccnc(Sc2c(OC)nc(N3CCCCC3)nc2OC)n1 [YK72, N-(2-(4,6-dimethoxy-2-(piperidin-1-yl)pyrimidin-5-ylthio)pyrimidin-4-yl)acrylamide]
8 | COc1nc(N2CCN(C)CC2)nc(OC)c1Sc1nc(N)cc(NC(=O)CCN(C)C)n1 [YK51, N-(6-amino-2-(4,6-dimethoxy-2-(4-methylpiperazin-1-yl)pyrimidin-5-ylthio)pyrimidin-4-yl)-3-(dimethylamino)propanamide]

same assay, conditions: Kasumi-1 cells, 72 h

IC50 [µM] | Compound
7.9 | COc1nc(N2CCN(C)CC2)nc(OC)c1Sc1cccc(NC(=O)C2CC2)c1 [YK139, N-(3-(4,6-dimethoxy-2-(4-methylpiperazin-1-yl)pyrimidin-5-ylthio)phenyl)cyclopropanecarboxamide]
9 | CCC(=O)Nc1cccc(Sc2c(C)nc(N3CCNCC3)nc2C)c1 [YK146, N-(3-(4,6-dimethyl-2-(piperazin-1-yl)pyrimidin-5-ylthio)phenyl)propionamide]

test system: SKBr3 HER2+ breast cancer cells; test: Growth Inhibition Assay (Alamar blue), SKBr3; assay type: cell-based, human; conditions: Homo sapiens, SK-BR-3, 72 h
Experimental: as §1, §2

Compound | IC50 [µM]
COCC(=O)Nc1ccnc(Sc2c(C)nc(N3CCOCC3)nc2C)n1 [YK123, N-(2-(4,6-dimethyl-2-morpholinopyrimidin-5-ylthio)pyrimidin-4-yl)-2-methoxyacetamide] | > 100
COc1nc(N2CCN(C)CC2)nc(OC)c1Sc1cccc(NC(=O)C2CC2)c1 [YK139, N-(3-(4,6-dimethoxy-2-(4-methylpiperazin-1-yl)pyrimidin-5-ylthio)phenyl)cyclopropanecarboxamide] | 7.7
CCC(=O)Nc1cccc(Sc2c(OC)nc(N3CCN(CCOCCOCCOCCOC(=O)CCCCC4SCC5NC(=O)NC54)CC3)nc2OC)c1 (stereo not drawn) [YK142, 2-(2-(2-(2-(4-(4,6-dimethoxy-5-(3-propionamidophenylthio)pyrimidin-2-yl)piperazin-1-yl)ethoxy)ethoxy)ethoxy)ethyl 5-(2-oxohexahydro-1H-thieno[3,4-d]imidazol-4-yl)pentanoate] | 47.9
COc1nc(N2CC[N+](C)([O-])CC2)nc(OC)c1Sc1nccc(NC(C)=O)n1 [YK75, 4-(5-(4-acetamidopyrimidin-2-ylthio)-4,6-dimethoxypyrimidin-2-yl)-1-methylpiperazine 1-oxide] | > 100

Second part, the compound after the results:

IC50 [µM] | Compound
1.8 | C=CC(=O)Nc1ccnc(Sc2c(C)nc(N3CCN(C)CC3)nc2C)n1 [YK85, N-(2-(4,6-dimethyl-2-(4-methylpiperazin-1-yl)pyrimidin-5-ylthio)pyrimidin-4-yl)acrylamide]
18.3 | CCC(=O)Nc1cccc(Sc2c(OC)nc(N3CCN(C)CC3)nc2OC)c1 [YK130, N-(3-(4,6-dimethoxy-2-(4-methylpiperazin-1-yl)pyrimidin-5-ylthio)phenyl)propionamide]
38.9 | CCC(=O)Nc1cccc(Sc2c(OC)nc(N3CCN(CCOCCOCCOCCO)CC3)nc2OC)c1 [YK141, N-(3-(2-(4-(2-(2-(2-(2-hydroxyethoxy)ethoxy)ethoxy)ethyl)piperazin-1-yl)-4,6-dimethoxypyrimidin-5-ylthio)phenyl)propionamide]
18.1 | C=C(C)C(=O)Nc1cccc(Sc2c(OC)nc(N3CCOCC3)nc2OC)c1 [PDP5, N-(3-(4,6-dimethoxy-2-morpholinopyrimidin-5-ylthio)phenyl)methacrylamide]
9.9 | COc1nc(N2CCOCC2)nc(OC)c1Sc1cccc(NC(=O)C2CC2)c1 [PDP6, N-(3-(4,6-dimethoxy-2-morpholinopyrimidin-5-ylthio)phenyl)cyclopropanecarboxamide]

Source: patent publication US9567318B2, “Substituted pyrimidine compounds and uses thereof” (Memorial Sloan-Kettering Cancer Center, priority 2009, dated 2017)
